Target: T1, PI3Kα (p110α) (Homo sapiens, UniProt P42336)
T1 construct: gene PIK3CA; N-6*His tag-TEV site-p85α (318–615) - GSPGISGGGGG-full length p110α fusion protein; with p85α (318–615), PIK3R1
Assay: X-ray co-crystal structure (apo crystals soaked); IC50 from PI3K HTRF assay on purified enzyme
Assay type: biochemical
Excerpt: X-ray co-crystal structure (apo crystals soaked); IC50 from PI3K HTRF assay on purified enzyme on PI3Kα (p110α) | The crystal structure of PI3Kα–YXY-4F verified that the compound YXY-4F bound to the ATP-binding pocket

T1 sequence (P42336 whole entry, the tested form may be a part): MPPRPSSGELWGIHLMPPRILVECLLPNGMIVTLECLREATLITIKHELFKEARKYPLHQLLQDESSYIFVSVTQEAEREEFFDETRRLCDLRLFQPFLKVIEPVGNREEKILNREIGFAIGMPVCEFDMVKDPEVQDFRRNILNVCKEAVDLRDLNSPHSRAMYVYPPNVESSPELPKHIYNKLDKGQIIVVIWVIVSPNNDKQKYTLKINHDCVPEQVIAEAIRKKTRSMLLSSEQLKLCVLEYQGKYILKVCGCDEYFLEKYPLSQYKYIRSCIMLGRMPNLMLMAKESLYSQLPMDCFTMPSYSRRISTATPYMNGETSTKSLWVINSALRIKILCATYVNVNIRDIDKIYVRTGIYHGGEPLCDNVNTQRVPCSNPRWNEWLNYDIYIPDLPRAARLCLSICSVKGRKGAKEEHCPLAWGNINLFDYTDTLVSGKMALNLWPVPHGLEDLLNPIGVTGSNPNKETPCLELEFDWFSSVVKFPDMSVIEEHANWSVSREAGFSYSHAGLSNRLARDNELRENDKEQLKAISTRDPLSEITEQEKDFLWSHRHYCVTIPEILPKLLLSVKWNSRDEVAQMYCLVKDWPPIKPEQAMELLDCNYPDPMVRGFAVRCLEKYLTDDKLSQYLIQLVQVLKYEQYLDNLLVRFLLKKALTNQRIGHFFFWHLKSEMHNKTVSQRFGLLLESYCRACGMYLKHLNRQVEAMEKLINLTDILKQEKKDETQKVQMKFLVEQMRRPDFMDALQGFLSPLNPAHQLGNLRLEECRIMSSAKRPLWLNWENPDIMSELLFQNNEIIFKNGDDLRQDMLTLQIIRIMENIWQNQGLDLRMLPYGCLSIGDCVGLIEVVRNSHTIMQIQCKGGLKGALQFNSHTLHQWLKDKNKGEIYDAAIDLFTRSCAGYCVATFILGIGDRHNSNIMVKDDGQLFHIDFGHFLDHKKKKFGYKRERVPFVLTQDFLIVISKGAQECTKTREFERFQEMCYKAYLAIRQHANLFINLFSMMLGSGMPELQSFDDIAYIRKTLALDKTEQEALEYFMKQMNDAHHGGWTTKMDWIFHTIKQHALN
T1 sequence (P27986 318-615 partner): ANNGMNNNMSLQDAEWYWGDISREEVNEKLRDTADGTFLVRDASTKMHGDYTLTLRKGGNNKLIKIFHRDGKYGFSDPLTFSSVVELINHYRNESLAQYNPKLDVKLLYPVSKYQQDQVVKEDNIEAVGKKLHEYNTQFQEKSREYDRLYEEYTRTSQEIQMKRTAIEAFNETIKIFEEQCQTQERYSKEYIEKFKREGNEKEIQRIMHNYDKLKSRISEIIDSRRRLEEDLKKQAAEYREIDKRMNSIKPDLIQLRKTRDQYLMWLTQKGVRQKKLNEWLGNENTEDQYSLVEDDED

IC50: 1020 ± 5 nM
SMILES: Oc1cc(NCc2ccc(F)cc2)cc(-c2nc(N3CCOCC3)c3sccc3n2)c1 [YXY-4F]
